Experimental data published in patent US12410208B2, “(2-acetamidyl)thio-beta-D-galactopyranoside derivatives” (Idorsia Pharmaceuticals Ltd, priority 2020, dated 2025).

How the values were obtained:
[1] = molecular target: biotinylated human Gal-3 (hGal-3) (Homo sapiens, UniProt P17931); test: Competitive binding assay: biotinylated hGal-3 binding to microplate-adsorbed asialofetuin (ASF), spectrophotometric; details: Table 12; hGal-3; read-out: IC50 (Gal-3 inhibition)
In short: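 Serially diluted compounds competed with asialofetuin on the plate for biotinylated human Gal-3 during a 3 h incubation at 4° C. Streptavidin-peroxidase with ABTS gave the spectrophotometric signal. IC50 values were averaged over repeat runs.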

human Gal-1 (hGal-1) = human Gal-1 (hGal-1) (Homo sapiens, UniProt P09382); test: Competitive binding assay: biotinylated hGal-1 binding to microplate-adsorbed asialofetuin (ASF), spectrophotometric; details: hGal-1 binding to asialofetuin; Table 15; R and S epimers of selected Examples also listed; read-out: IC50 (Galectin-1 inhibition)
Chain of human Gal-1 (hGal-1) (P09382 whole entry): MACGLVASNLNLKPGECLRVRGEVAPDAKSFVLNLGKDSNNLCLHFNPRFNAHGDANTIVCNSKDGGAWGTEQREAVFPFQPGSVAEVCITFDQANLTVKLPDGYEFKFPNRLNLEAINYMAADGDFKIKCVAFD
In short: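 Spectrophotometric competition readout with ABTS after streptavidin-peroxidase (80 ng/mL, 1 h, 4 °C) detection of bound biotinylated hGal-1.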

Chain of biotinylated human Gal-3 (hGal-3) (P17931 whole entry): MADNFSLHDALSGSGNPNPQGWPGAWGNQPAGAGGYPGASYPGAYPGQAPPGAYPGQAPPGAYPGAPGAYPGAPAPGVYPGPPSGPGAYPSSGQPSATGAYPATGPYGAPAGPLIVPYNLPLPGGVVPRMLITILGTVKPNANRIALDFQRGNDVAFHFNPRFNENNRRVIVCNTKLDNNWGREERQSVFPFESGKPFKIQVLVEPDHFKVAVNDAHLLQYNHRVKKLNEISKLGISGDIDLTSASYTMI

With `CO[C@@H]1[C@@H](n2cc(-c3cc(F)c(F)c(F)c3)nn2)[C@@H](O)[C@@H](CO)O[C@H]1SC(C(=O)N1CCOCC1)C1(O)CCC(F)(F)CC1` (stereo partly drawn) [Example 2.44.244.I., 2-(4,4-Difluoro-1-hydroxycyclohexyl)-2-(((2S,3R,4S,5R,6R)-5-hydroxy-6-(hydroxymethyl)-3-methoxy-4-(4-(3,4,5-trifluorophenyl)-1H-1,2,3-triazol-1-yl)tetrahydro-2H-pyran-2-yl)thio)-1-morpholinoethan-1-one] the IC50 [1] was 70 nM and the IC50 (human Gal-1 (hGal-1)) was 100 nM.
For `CO[C@@H]1[C@@H](n2cc(-c3cc(F)c(F)c(F)c3)nn2)[C@@H](O)[C@@H](CO)O[C@H]1SC(C(=O)N1CCC(C)(C)CC1)C1(O)CCC(F)(F)CC1` (stereo partly drawn) [Example 2.44.245.I., 2-(4,4-Difluoro-1-hydroxycyclohexyl)-1-(4,4-dimethylpiperidin-1-yl)-2-(((2S,3R,4S,5R,6R)-5-hydroxy-6-(hydroxymethyl)-3-methoxy-4-(4-(3,4,5-trifluorophenyl)-1H-1,2,3-triazol-1-yl)tetrahydro-2H-pyran-2-yl)thio)ethan-1-one], the IC50 [1] was 90 nM and the IC50 (human Gal-1 (hGal-1)) was 210 nM.
`CO[C@@H]1[C@@H](n2cc(-c3cc(F)c(F)c(F)c3)nn2)[C@@H](O)[C@@H](CO)O[C@H]1SC(C(=O)N(C)C1CCC(C)(C)CC1)C1(O)CCC(F)(F)CC1` (stereo partly drawn) [Example 2.44.246.I., 2-(4,4-Difluoro-1-hydroxycyclohexyl)-N-(4,4-dimethylcyclohexyl)-2-(((2S,3R,4S,5R,6R)-5-hydroxy-6-(hydroxymethyl)-3-methoxy-4-(4-(3,4,5-trifluorophenyl)-1H-1,2,3-triazol-1-yl)tetrahydro-2H-pyran-2-yl)thio)-N-methylacetamide] showed an IC50 [1] of 320 nM and an IC50 (human Gal-1 (hGal-1)) of 1200 nM.
`CO[C@@H]1[C@@H](n2cc(-c3cc(F)c(F)c(F)c3)nn2)[C@@H](O)[C@@H](CO)O[C@H]1SC(C(=O)N(C)C12CC(C1)C2)C1(O)CCC(F)(F)CC1` (stereo partly drawn) [Example 2.44.247.I., N-(Bicyclo[1.1.1]pentan-1-yl)-2-(4,4-difluoro-1-hydroxycyclohexyl)-2-(((2S,3R,4S,5R,6R)-5-hydroxy-6-(hydroxymethyl)-3-methoxy-4-(4-(3,4,5-trifluorophenyl)-1H-1,2,3-triazol-1-yl)tetrahydro-2H-pyran-2-yl)thio)-N-methylacetamide] gave an IC50 [1] of 50 nM and an IC50 (human Gal-1 (hGal-1)) of 30 nM.
Work on `CNC(=O)C(S[C@@H]1O[C@H](CO)[C@H](O)[C@H](n2cc(-c3cc(F)c(F)c(F)c3)nn2)[C@H]1OC)C1(O)CCC(F)(F)CC1` (stereo partly drawn) [Example 2.44.248.I., 2-(4,4-Difluoro-1-hydroxycyclohexyl)-2-(((2S,3R,4S,5R,6R)-5-hydroxy-6-(hydroxymethyl)-3-methoxy-4-(4-(3,4,5-trifluorophenyl)-1H-1,2,3-triazol-1-yl)tetrahydro-2H-pyran-2-yl)thio)-N-methylacetamide] yielded an IC50 [1] of 490 nM and an IC50 (human Gal-1 (hGal-1)) of 730 nM.
In the case of `CO[C@@H]1[C@@H](n2cc(-c3cc(F)c(F)c(F)c3)nn2)[C@@H](O)[C@@H](CO)O[C@H]1SC(C(=O)NC1CCOCC1)C1(O)CCC(F)(F)CC1` (stereo partly drawn) [Example 2.44.249.I., 2-(4,4-Difluoro-1-hydroxycyclohexyl)-2-(((2S,3R,4S,5R,6R)-5-hydroxy-6-(hydroxymethyl)-3-methoxy-4-(4-(3,4,5-trifluorophenyl)-1H-1,2,3-triazol-1-yl)tetrahydro-2H-pyran-2-yl)thio)-N-(tetrahydro-2H-pyran-4-yl)acetamide], the IC50 [1] is reported as 80 nM and the IC50 (human Gal-1 (hGal-1)) is reported as 360 nM.
`CCC(CC)NC(=O)C(S[C@@H]1O[C@H](CO)[C@H](O)[C@H](n2cc(-c3cc(F)c(F)c(F)c3)nn2)[C@H]1OC)C1(O)CCC(F)(F)CC1` (stereo partly drawn) [Example 2.44.250.I., 2-(4,4-Difluoro-1-hydroxycyclohexyl)-2-(((2S,3R,4S,5R,6R)-5-hydroxy-6-(hydroxymethyl)-3-methoxy-4-(4-(3,4,5-trifluorophenyl)-1H-1,2,3-triazol-1-yl)tetrahydro-2H-pyran-2-yl)thio)-N-(pentan-3-yl)acetamide] showed an IC50 [1] of 50 nM and an IC50 (human Gal-1 (hGal-1)) of 270 nM.
